Tests used:
[1] = system: Gray mold-causing microbe (Botrytis cinerea); assay: Antimicrobial activity to various pathogenic microbes: B.c; conditions: 50 mg/L
Experimental: (§1) An inventive compound was dissolved in dimethylsulfoxide 2 ml. The solution 0.6 ml was added to a PDA medium (potato-dextrose-agar medium) 60 ml at around 60° C.
(§2) A flat plate containing a test microbe (wheat leaf blight-causing microbe) cultured separately was punched into pieces with a cork borer having a diameter of 4 mm and the circular plate obtained was placed on the flat plate media containing the chemical described above. The plates were cultured at 25° C. for 14 days after inoculation and the diameter of the microbial colony was determined. Hyphal expansion-inhibiting rate was calculated according to the following equation: R=100(dc−dt)/dc (wherein, R: hyphal expansion-inhibiting rate (%), dc: diameter of microbial colony on non-treated flat plate, dt: diameter of microbial colony on chemically-treated flat plate).
(§3) In this Test Example, the antimicrobial activity of the inventive compounds to various plant disease-causing fungi and industrial material-eroding microorganisms was studied by the method described in Example 1.
(§4) The results thus obtained were evaluated in 5 stages according to the criteria below:
Gray mold-causing microbe (Botrytis cinerea) B.c

[2] = system: wheat powdery mildew-causing microbes; assay: Controlling activity to wheat powdery mildew of seed treatment (pot test); assay type: in vivo, Erysiphe graminis f. sp tritici; conditions: 2 mg in DMSO applied to wheat seeds 1 g, 14 to 28 days after seeding
Experimental: Controlling activity to wheat powdery mildew was examined in a pot test. Each of the inventive compounds […]-53, and a comparative compound (1) was weighed in an amount of 2 mg and dissolved in DMSO (18 μl). The solution thus prepared was applied to wheat seeds 1 g in a vial, 8 wheat seeds were seeded in a 80 cm^2 pot. The wheat was grown, as water was supplied from blow, in a greenhouse where wheat powdery mildew-causing microbes are present abundantly. The incidence rate was determined and the controlling rate and additionally the controlling index calculated 14 to 28 days after seeding. The controlling rate was calculated and the wheat powdery mildew controlling index determined according to the following equation: Controlling rate=(1-Incidence rate in treated region/Incidence rate in non-treated region)×100(%) [table]

[3] = system: Apple alternaria blotch-causing microbe (Alternaria alternata); assay: Antimicrobial activity to various pathogenic microbes: A.m; conditions: 50 mg/L
Experimental: as §1, §2, §3, §4
Apple alternaria blotch-causing microbe (Alternaria alternata) A.m

[4] = system: Wheat eye spot-causing microbe (Pseudocercoporella herpotrichoides); assay: Antimicrobial activity to various pathogenic microbes: P.h; conditions: 50 mg/L
Experimental: as §1
(§5) The plates were cultured at 25° C. for 14 days after inoculation and the diameter of the microbial colony was determined. Hyphal expansion-inhibiting rate was calculated according to the following equation: R=100(dc−dt)/dc (wherein, R: hyphal expansion-inhibiting rate (%), dc: diameter of microbial colony on non-treated flat plate, dt: diameter of microbial colony on chemically-treated flat plate).
as §4
Wheat eye spot-causing microbe (Pseudocercoporella herpotrichoides) P.h

[5] = system: Wheat fusarium blight-causing microbe (Fusarium graminearum); assay type: cell-based; conditions: 50 mg/L
[6] = system: Wheat glume blotch-causing microbe (Phaeosphaeria nodorum); assay: Antimicrobial activity to various pathogenic microbes: P.n; conditions: 50 mg/L
Experimental: as §1, §2, §3, §4
Wheat glume blotch-causing microbe (Phaeosphaeria nodorum) P.n

[7] = system: Rice bakanae disease-causing microbe (Gibberella fujikuroi); assay: Antimicrobial activity to various pathogenic microbes: G.f; conditions: 50 mg/L
Experimental: as §1, §2, §4

[8] = system: Barley loose smut-causing microbe (Ustilago nuda); assay: Antimicrobial activity to various pathogenic microbes: U.n; conditions: 50 mg/L
Experimental: as §1, §5, §4
Barley loose smut-causing microbe (Ustilago nuda) U.n

[9] = system: Rice blast-causing microbe (Pyricularia oryzae); assay type: cell-based; conditions: 50 mg/L
[10] = system: wheat leaf rust-causing microbe; assay: Wheat leaf rust-controlling activity (foliar spray, pot test); assay type: in vivo, Puccinia recondita; conditions: Concentration 25 g/ha; wettable powder sprayed on wheat (Norin No. 61), 9 to 14 days after inoculation
[11] = system: Cucumber Fusarium wilt-causing microbe (Fusarium oxysporum); assay: Antimicrobial activity to various pathogenic microbes: F.c; conditions: 50 mg/L
Experimental: as §1, §2, §4

[12] = system: wheat leaf blight-causing microbe; assay: Antimicrobial activity to wheat leaf blight-causing microbe (PDA plate, hyphal expansion inhibition); assay type: cell-based, Septoria tritici; conditions: 336 h, PDA medium, 25° C., 14 days; for inhibition at 50 µg/mL: Concentration 50 mg/L, read-out: Growth inhibition; for inhibition at 1.25 µg/mL: test sample concentration 1.25 mg/L, read-out: hyphal expansion-inhibiting rate
Experimental: In this Test Example, antimicrobial activity of the inventive compounds to wheat leaf blight-causing microbe was determined and compared with that of the comparative compound (1).

[13] = system: Sclerotinia rot-causing microbe (Sclerotinia sclerotiorum); assay: Antimicrobial activity to various pathogenic microbes: S.s; conditions: 50 mg/L
Experimental: as §1, §2, §4
Sclerotinia rot-causing microbe (Sclerotinia sclerotiorum) S.s

wheat = assay: Damage to wheat (growth inhibition) by seed treatment (pot test); conditions: 2 mg in DMSO applied to wheat seeds 1 g, 14 to 28 days after seeding, larger index = smaller damage
[14] = system: Barley scald-causing microbe (Rhynchosporium secalis); assay: Antimicrobial activity to various pathogenic microbes: R.sec; conditions: 50 mg/L
Experimental: as §1, §2, §3, §4
Barley scald-causing microbe (Rhynchosporium secalis) R.sec

Structure (SMILES) | Growth inhibition (hyphal expansion-inhibiting rate grade) B.c [1] | Controlling index Wheat powdery mildew [2] | Growth inhibition (hyphal expansion-inhibiting rate grade) A.m [3] | Growth inhibition (hyphal expansion-inhibiting rate grade) P.h [4] | Growth inhibition (hyphal expansion-inhibiting rate grade) F.g [5] | Growth inhibition (hyphal expansion-inhibiting rate grade) P.n [6] | Growth inhibition (hyphal expansion-inhibiting rate grade) G.f [7] | Growth inhibition (hyphal expansion-inhibiting rate grade) U.n [8] | Growth inhibition (hyphal expansion-inhibiting rate grade) P.o [9] | Controlling index [10] | Growth inhibition (hyphal expansion-inhibiting rate grade) F.c [11] | inhibition at 50 µg/mL [12] [%] | inhibition at 1.25 µg/mL [12] [%] | Growth inhibition (hyphal expansion-inhibiting rate grade) S.s [13] | Damage index Growth inhibition (wheat) | Growth inhibition (hyphal expansion-inhibiting rate grade) R.sec [14]
CCCOC(=O)[C@]1(C)CC[C@@H](Cc2ccc(Cl)cc2)[C@]1(O)Cn1cncn1 (racemic) [Compound I-6, n-propyl-(1RS,2RS,3SR)-3-(4-chlorobenzyl)-2-hydroxy-1-methyl-2-(1H-1,2,4-triazol-1-ylmethyl)cyclopentanecarboxylate] | 5 (hyphal expansion-inhibiting rate: 80% or more) | 5 (Controlling rate: 40 or more) | 5 (hyphal expansion-inhibiting rate: 80% or more) | 5 (hyphal expansion-inhibiting rate: 80% or more) | 5 (hyphal expansion-inhibiting rate: 80% or more) | 5 (hyphal expansion-inhibiting rate: 80% or more) | 5 (hyphal expansion-inhibiting rate: 80% or more) | 5 (hyphal expansion-inhibiting rate: 80% or more) | 5 (hyphal expansion-inhibiting rate: 80% or more) | 5 (81 to 100) | 5 (hyphal expansion-inhibiting rate: 80% or more) | > 80 | ≥ 80 | 5 (hyphal expansion-inhibiting rate: 80% or more) | 3 (20% or more and less than 40%) | 5 (hyphal expansion-inhibiting rate: 80% or more)
COC(=O)[C@]1(C)CC[C@H](Cc2ccc(F)cc2)[C@@]1(O)Cn1cncn1 (racemic) [Compound I-53, methyl-(1RS, 2SR,3RS)-3-(4-fluorobenzyl)-2-hydroxy-1-methyl-2-(1H-1,2,4-triazol-1-ylmethyl)cyclopentanecarboxylate] | 5 (hyphal expansion-inhibiting rate: 80% or more) | 5 (Controlling rate: 40 or more) | 5 (hyphal expansion-inhibiting rate: 80% or more) | 5 (hyphal expansion-inhibiting rate: 80% or more) | 5 (hyphal expansion-inhibiting rate: 80% or more) | 5 (hyphal expansion-inhibiting rate: 80% or more) | 5 (hyphal expansion-inhibiting rate: 80% or more) | 5 (hyphal expansion-inhibiting rate: 80% or more) | 5 (hyphal expansion-inhibiting rate: 80% or more) | 5 (81 to 100) | 5 (hyphal expansion-inhibiting rate: 80% or more) | > 80 | ≥ 80 | 5 (hyphal expansion-inhibiting rate: 80% or more) | 1 (60% or more and less than 80%) | 5 (hyphal expansion-inhibiting rate: 80% or more)
COC(=O)[C@]1(C)CC[C@H](Cc2ccc(Cl)cc2)[C@@]1(O)Cn1cncn1 (racemic) [Compound I-132, methyl-(1RS,2SR,3RS)-3-(4-chlorobenzyl)-2-hydroxy-1-methyl-2-(1H-1,2,4-triazol-1-ylmethyl)cyclopentanecarboxylate] | 5 (hyphal expansion-inhibiting rate: 80% or more) | 5 (Controlling rate: 40 or more) | 5 (hyphal expansion-inhibiting rate: 80% or more) | 5 (hyphal expansion-inhibiting rate: 80% or more) | 5 (hyphal expansion-inhibiting rate: 80% or more) | 5 (hyphal expansion-inhibiting rate: 80% or more) | 5 (hyphal expansion-inhibiting rate: 80% or more) | 5 (hyphal expansion-inhibiting rate: 80% or more) | 5 (hyphal expansion-inhibiting rate: 80% or more) | 5 (81 to 100) | 5 (hyphal expansion-inhibiting rate: 80% or more) | > 80 | – | 5 (hyphal expansion-inhibiting rate: 80% or more) | 5 | 5 (hyphal expansion-inhibiting rate: 80% or more)
CCOC(=O)[C@]1(C)CC[C@H](Cc2ccc(Cl)cc2)[C@@]1(O)Cn1cncn1 (racemic) [Compound I-133, ethyl-(1RS,2SR,3RS)-3-(4-chlorobenzyl)-2-hydroxy-1-methyl-2-(1H-1,2,4-triazol-1-ylmethyl)cyclopentanecarboxylate] | 5 (hyphal expansion-inhibiting rate: 80% or more) | 5 (Controlling rate: 40 or more) | 5 (hyphal expansion-inhibiting rate: 80% or more) | 5 (hyphal expansion-inhibiting rate: 80% or more) | 5 (hyphal expansion-inhibiting rate: 80% or more) | 5 (hyphal expansion-inhibiting rate: 80% or more) | 5 (hyphal expansion-inhibiting rate: 80% or more) | 5 (hyphal expansion-inhibiting rate: 80% or more) | 5 (hyphal expansion-inhibiting rate: 80% or more) | 5 (81 to 100) | 5 (hyphal expansion-inhibiting rate: 80% or more) | > 80 | – | 5 (hyphal expansion-inhibiting rate: 80% or more) | 4 (1% or more and less than 20%) | 5 (hyphal expansion-inhibiting rate: 80% or more)
C=CCOC(=O)[C@]1(C)CC[C@H](Cc2ccc(Cl)cc2)[C@@]1(O)Cn1cncn1 (racemic) [Compound I-134, allyl-(1RS,2SR,3RS)-3-(4-chlorobenzyl)-2-hydroxy-1-methyl-2-(1H-1,2,4-triazol-1-ylmethyl)cyclopentanecarboxylate] | 5 (hyphal expansion-inhibiting rate: 80% or more) | 5 (Controlling rate: 40 or more) | 5 (hyphal expansion-inhibiting rate: 80% or more) | 5 (hyphal expansion-inhibiting rate: 80% or more) | 5 (hyphal expansion-inhibiting rate: 80% or more) | 5 (hyphal expansion-inhibiting rate: 80% or more) | 5 (hyphal expansion-inhibiting rate: 80% or more) | 5 (hyphal expansion-inhibiting rate: 80% or more) | 5 (hyphal expansion-inhibiting rate: 80% or more) | 5 (81 to 100) | 5 (hyphal expansion-inhibiting rate: 80% or more) | > 80 | – | 5 (hyphal expansion-inhibiting rate: 80% or more) | 3 (20% or more and less than 40%) | 5 (hyphal expansion-inhibiting rate: 80% or more)

From patent publication US9440933B2, “Azole derivative, method for producing same, intermediate compound, and agricultural or horticultural chemical agent and industrial material protecting agent” (KUREHA CORPORATION, priority 2011, dated 2016)
